Experimental data reported in US20030012780A1, “Anti-inflammatory medicaments” (Karolinska Innovation AB, priority 1998, published 2003).

Legend:
[1] = system: PAF-stimulated PMN locomotion in the rat mesentery; test: Intravital time lapse videomicroscopy of PMN locomotion in rat mesentery in vivo; details: PAF 10^-7 M
Experimental: Intravital time lapse videomicroscopy of PMN locomotion in vivo. PMN locomotion in rat mesenteric tissue was studied through use of intravital time lapse videomicroscopy according to the protocol previously described in detail (Werr et al., supra). In brief, Wistar rats (200-250 g) were anesthetized with equal parts of fluanison/fentanyl (10/0.2 mg/ml; Hypnorm; Janssen-Cilag Ltd., Saunderton, UK) and midazolam (5 mg/ml; Dormicum; Hoffman-La Roche, Basel, Switzerland) diluted 1:1 with sterile water (2 ml/kg i.m.). Body temperature was maintained at 37° C. by a heating pad connected to a rectal thermistor. After laparotomy, a segment of the ileum was exposed on a heated transparent pedestal to allow microscopic observation of the mesenteric microvasculature (Orthoplan microscope equipped with water immersion lens SW×25, NA 0.60; Leitz, Wetzlar, Germany). The microscopic image was televised and recorded on time lapse video (at 1/7 of normal speed). Analysis of leukocyte migration in the mesenteric tissue was made off line and the migration path of individual leukocytes was tracked with a digital image analyzer.
Leukocyte extravasation and migration was induced by soaking the exposed mesentery with 5 ml bicarbonate buffer solution (37° C.) containing PAF at a concentration of 10^−7 M. The tissue was then covered with a transparent plastic film to provide continues chemotactic stimulation by PAF. After 40 min of chemotactic stimulation, when numerous leukocytes had extravasated, time lapse recording of leukocyte migration was undertaken, first for 20 min to assess basal migration rates in response to PAF stimulation, and then for additional 40 min in the presence of PAF together with antibodies or peptides. The antibody concentration in the mixture administered to the tissue was for all antibodies 100 μg/ml. The peptide DGEA was similarly administered at a concentration of 25 mM and SLIDIP/RGDGW at a concentration of 500 μM. Due to dilution of the reagent in fluid covering the tissue these seemingly high doses, ˜10 times the documented effective blocking dose, were chosen in order to reach a sufficient concentration in proximity of the migrating leukocytes in the tissue. […] As previously documented, more than 85% of the migrating cells were neutrophils (Werr et al., supra).

[2] = system: fMLP-stimulated human PMN locomotion in collagen (type I) gels; test: PMN migration in gels of collagen (type I); type: cell-based; details: fMLP 10^-7 M; DGEA 5 mM; 30 min at 37° C.
Experimental: PMN migration in gels of collagen (type I) and gelatin. Gels were formed in 24-well culture dishes (250 μl/well) by mixing 8.5 volumes of rat collagen solution or bovine gelatin solution (Sigma) at a concentration of 1.5 mg/ml with 1 volume of ×10 MEM (Life Technologies, Gaithersburg, Md.) and 0.5 volume of 4.4% NaHCO3 and fMLP (final concentration 10^−7 M). Purified human PMN (0.5×106), suspended in 200 μl of MEM containing 10^−9 fMLP were placed on top of the gels and incubated with or without mAb:s or peptides for 30 min at 37° C. The final concentration was for all mAb:s 20 μg/ml, for DGEA 5 mM and for SLIDIP/RGDGW 100 μM. Four to six experiments were run in duplicate gels for each reagent tested and ten randomly chosen microscopic fields (with a defined area of 0.0625 mm) were analyzed in each gel. The migration of PMN into the gel was analyzed with an Leitz Orthoplan microscope equipped with a water immersion lens (Leitz UO×55W, NA 0.80) by focusing down through the gel. The calibrated micrometer scale in the fine focus adjustment was used to determine the migration distance of individual PMN from the upper gel surface. The average migration distance of the three leading cells in each field was calculated and defined as the migration distance of the leading front.

[3] = ten-fold higher concentrations of SLIDIP/RGDGW in some experiments

Substance	effect on PMN migration (in words) [1, 3]	effect on PMN migration (in words) ([1]; topical SLIDIP/RGDGW 500 μM)	inhibition of PMN migration velocity ([1]; topical DGEA 25 mM, p<0.001)	migration distance of the leading front in collagen gels (in words) [2]
ACRGDGWMCG	did not yield different effects	without effect	–	–
SLIDIP	did not yield different effects	without effect	–	–
DGEA	–	–	70±10%	to the level of non-stimulated cells
